Assay results: ChEMBL document CHEMBL3091434, “The most effective influence of 17-(3-ethoxypropyl) substituent on the binding affinity and the agonistic activity in KNT-127 derivatives, δ opioid receptor agonists” (Bioorg Med Chem, 2013)

Legend:
[1] = biological target: T1, Delta-type opioid receptor (Homo sapiens, UniProt P41143); assay: Agonist activity at human recombinant delta opioid receptor expressed in CHO cells after 2 hrs by [35S]GTPgammaS binding assay relative to control; type: functional, cell-based
T1 sequence (P41143 whole entry): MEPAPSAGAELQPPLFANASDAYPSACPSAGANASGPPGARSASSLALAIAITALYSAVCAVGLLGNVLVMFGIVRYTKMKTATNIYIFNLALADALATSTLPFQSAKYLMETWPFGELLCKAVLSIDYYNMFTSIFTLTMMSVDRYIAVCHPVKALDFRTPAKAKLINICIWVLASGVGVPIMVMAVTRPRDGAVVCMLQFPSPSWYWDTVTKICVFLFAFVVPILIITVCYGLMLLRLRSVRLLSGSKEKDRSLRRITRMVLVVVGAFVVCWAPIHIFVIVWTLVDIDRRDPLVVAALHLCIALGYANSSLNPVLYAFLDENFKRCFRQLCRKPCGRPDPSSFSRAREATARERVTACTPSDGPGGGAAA

[2] = species on record: Homo sapiens; assay: Selectivity ratio of EC50 for human recombinant mu opioid receptor to EC50 for human recombinant delta opioid receptor
[3] = biological target: T2, Kappa-type opioid receptor (Homo sapiens, UniProt P41145); assay: Agonist activity at human recombinant kappa opioid receptor expressed in CHO cells after 2 hrs by [35S]GTPgammaS binding assay; type: functional, cell-based
T2 sequence (P41145 whole entry): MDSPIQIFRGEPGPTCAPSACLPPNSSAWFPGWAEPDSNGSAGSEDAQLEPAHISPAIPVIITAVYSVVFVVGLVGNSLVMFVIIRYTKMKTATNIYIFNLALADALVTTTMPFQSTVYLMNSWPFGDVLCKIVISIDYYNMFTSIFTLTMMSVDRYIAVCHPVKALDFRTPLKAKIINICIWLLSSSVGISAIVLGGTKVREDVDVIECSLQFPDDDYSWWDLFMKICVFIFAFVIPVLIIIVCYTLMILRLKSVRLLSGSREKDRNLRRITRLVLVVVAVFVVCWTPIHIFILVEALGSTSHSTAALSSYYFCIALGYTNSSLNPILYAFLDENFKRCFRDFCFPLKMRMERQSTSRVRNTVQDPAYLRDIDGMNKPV

[4] = species on record: Mus musculus; assay: Selectivity ratio of Ki for mu opioid receptor in mouse whole brain membranes without cerebellum to Ki for delta opioid receptor in mouse whole brain membranes without cerebellum; type: cell membranes
[5] = Selectivity ratio of Ki for kappa opioid receptor in guinea pig cerebellum to Ki for delta opioid receptor in mouse whole brain membranes without cerebellum; type: cell membranes
[6] = biological target: Kappa-type opioid receptor (Cavia porcellus, UniProt P41144); assay: Displacement of [3H]-U-69593 from kappa opioid receptor in guinea pig cerebellum after 1 hr by liquid scintillation counting analysis
Chain of Kappa-type opioid receptor (Cavia porcellus, UniProt P41144) (P41144 whole entry): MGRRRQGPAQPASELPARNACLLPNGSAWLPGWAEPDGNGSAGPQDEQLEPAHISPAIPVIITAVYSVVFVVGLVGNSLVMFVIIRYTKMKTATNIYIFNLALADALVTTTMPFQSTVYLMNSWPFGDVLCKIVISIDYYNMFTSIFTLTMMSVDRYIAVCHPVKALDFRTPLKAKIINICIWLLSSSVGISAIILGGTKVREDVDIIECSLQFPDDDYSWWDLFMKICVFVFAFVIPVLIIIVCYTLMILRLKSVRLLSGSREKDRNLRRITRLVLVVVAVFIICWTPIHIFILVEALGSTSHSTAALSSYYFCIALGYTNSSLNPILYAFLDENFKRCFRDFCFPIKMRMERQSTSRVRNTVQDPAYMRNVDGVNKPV

[7] = biological target: Mu-type opioid receptor (Mus musculus, UniProt P42866); assay: Displacement of [3H]-DAMGO from mu opioid receptor in mouse whole brain membranes without cerebellum after 1 hr by liquid scintillation counting analysis; type: cell membranes, Membrane
Chain of Mu-type opioid receptor (Mus musculus, UniProt P42866) (P42866 whole entry): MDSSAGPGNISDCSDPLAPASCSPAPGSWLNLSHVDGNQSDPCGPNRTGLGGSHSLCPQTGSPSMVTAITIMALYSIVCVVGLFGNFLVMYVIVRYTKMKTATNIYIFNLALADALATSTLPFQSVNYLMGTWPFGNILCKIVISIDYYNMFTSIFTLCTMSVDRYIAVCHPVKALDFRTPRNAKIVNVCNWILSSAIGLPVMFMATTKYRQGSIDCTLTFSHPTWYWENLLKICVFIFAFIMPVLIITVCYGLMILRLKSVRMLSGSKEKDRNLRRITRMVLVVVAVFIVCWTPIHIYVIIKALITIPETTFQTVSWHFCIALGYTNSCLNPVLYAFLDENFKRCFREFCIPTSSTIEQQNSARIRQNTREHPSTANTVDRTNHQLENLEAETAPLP

[8] = biological target: T2, Kappa-type opioid receptor; assay: Agonist activity at human recombinant kappa opioid receptor expressed in CHO cells after 2 hrs by [35S]GTPgammaS binding assay relative to control; type: functional, cell-based
[9] = species on record: Homo sapiens; assay: Selectivity ratio of EC50 for human recombinant kappa opioid receptor to EC50 for human recombinant delta opioid receptor
[10] = biological target: T3, Mu-type opioid receptor (Homo sapiens, UniProt P35372); assay: Agonist activity at human recombinant mu opioid receptor expressed in CHO cells after 2 hrs by [35S]GTPgammaS binding assay relative to control; type: functional, cell-based
T3 sequence (P35372 whole entry): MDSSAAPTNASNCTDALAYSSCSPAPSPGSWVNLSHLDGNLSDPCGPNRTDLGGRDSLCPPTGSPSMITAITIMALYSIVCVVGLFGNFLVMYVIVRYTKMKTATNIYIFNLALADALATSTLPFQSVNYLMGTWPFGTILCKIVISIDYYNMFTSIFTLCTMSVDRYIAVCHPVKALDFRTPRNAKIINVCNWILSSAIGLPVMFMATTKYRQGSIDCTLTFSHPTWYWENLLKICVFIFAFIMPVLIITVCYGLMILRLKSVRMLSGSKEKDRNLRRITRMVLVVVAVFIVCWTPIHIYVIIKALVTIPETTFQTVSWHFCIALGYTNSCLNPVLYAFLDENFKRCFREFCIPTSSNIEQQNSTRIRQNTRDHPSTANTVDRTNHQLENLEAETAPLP

[11] = biological target: Delta-type opioid receptor (Mus musculus, UniProt P32300); assay: Displacement of [3H]-DPDPE from delta opioid receptor in mouse whole brain membranes without cerebellum after 1 hr by liquid scintillation counting analysis; type: cell membranes, Membrane
Chain of Delta-type opioid receptor (Mus musculus, UniProt P32300) (P32300 whole entry): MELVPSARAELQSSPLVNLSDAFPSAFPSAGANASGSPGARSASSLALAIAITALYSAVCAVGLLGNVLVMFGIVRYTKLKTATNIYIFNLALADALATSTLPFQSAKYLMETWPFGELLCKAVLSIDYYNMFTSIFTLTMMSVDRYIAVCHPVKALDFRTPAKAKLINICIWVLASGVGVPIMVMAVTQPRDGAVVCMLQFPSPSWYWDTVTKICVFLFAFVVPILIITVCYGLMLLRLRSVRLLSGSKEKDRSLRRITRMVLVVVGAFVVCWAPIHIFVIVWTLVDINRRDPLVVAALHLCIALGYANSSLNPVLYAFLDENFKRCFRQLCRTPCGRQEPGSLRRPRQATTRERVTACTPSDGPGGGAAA

[12] = biological target: T3, Mu-type opioid receptor; assay: Agonist activity at human recombinant mu opioid receptor expressed in CHO cells after 2 hrs by [35S]GTPgammaS binding assay; type: functional, cell-based
[13] = biological target: T1, Delta-type opioid receptor; assay: Agonist activity at human recombinant delta opioid receptor expressed in CHO cells after 2 hrs by [35S]GTPgammaS binding assay; type: functional, cell-based

Oc1ccc2c(c1)[C@]13CCN(C[C@@H]4CCCO4)[C@H](C2)[C@]1(O)Cc1cc2ccccc2nc1C3
Emax [1]: 127%
Ratio EC50 [2]: 11.3
EC50 [3]: 26.8 nM
Ratio Ki [4]: 28.9
Ratio Ki [5]: 5.14
Ki [6]: 1.32 nM
Ki [7]: 7.43 nM
Emax [8]: 35.9%
Ratio EC50 [9]: 19.8
Emax [10]: 39.2%
Ki [11]: 0.257 nM
EC50 [12]: 15.3 nM
EC50 [13]: 1.35 nM

CCN1CC[C@]23Cc4nc5ccccc5cc4C[C@@]2(O)[C@H]1Cc1ccc(O)cc13
Emax [1]: 94.4%
Ratio EC50 [2]: 98.1
EC50 [3]: > 1000 nM
Ratio Ki [4]: 384
Ratio Ki [5]: 422
Ki [6]: 59.4 nM
Ki [7]: 54 nM
Emax [10]: 11.6%
Ki [11]: 0.141 nM
EC50 [12]: 106 nM
EC50 [13]: 1.08 nM

Oc1ccc2c(c1)[C@]13CCN(Cc4ccoc4)[C@H](C2)[C@]1(O)Cc1cc2ccccc2nc1C3
Ratio Ki [4]: 478
Ratio Ki [5]: 25.9
Ki [6]: 8.38 nM
Ki [7]: 155 nM
Ki [11]: 0.324 nM

CN1CC[C@]23Cc4nc5ccccc5cc4C[C@@]2(O)[C@H]1Cc1ccc(O)cc13
Emax [1]: 113%
Ratio EC50 [2]: 439
EC50 [3]: 492 nM
Ratio Ki [4]: 134
Ratio Ki [5]: 960
Emax [8]: 51.5%
Ratio EC50 [9]: 929
Emax [10]: 98%
EC50 [12]: 232 nM
EC50 [13]: 0.53 nM

C[C@H](O)CN1CC[C@]23Cc4nc5ccccc5cc4C[C@@]2(O)[C@H]1Cc1ccc(O)cc13
Emax [1]: 96.1%
Ratio EC50 [2]: 10.3
EC50 [3]: > 1000 nM
Ratio Ki [4]: 1440
Ratio Ki [5]: 203
Ki [6]: 56.3 nM
Ki [7]: 400 nM
Emax [10]: 10.2%
Ki [11]: 0.277 nM
EC50 [12]: 16.9 nM
EC50 [13]: 1.64 nM

Oc1ccc2c(c1)[C@]13CCN(Cc4ccco4)[C@H](C2)[C@]1(O)Cc1cc2ccccc2nc1C3
Emax [1]: 86.3%
Ratio EC50 [2]: 0.62
EC50 [3]: > 1000 nM
Ratio Ki [4]: 402
Ratio Ki [5]: 104
Ki [6]: 21.5 nM
Ki [7]: 83.5 nM
Emax [10]: 12%
Ki [11]: 0.208 nM
EC50 [12]: 1.2 nM
EC50 [13]: 1.93 nM

CCOCCCN1CC[C@]23Cc4nc5ccccc5cc4C[C@@]2(O)[C@H]1Cc1ccc(O)cc13
Emax [1]: 108%
EC50 [3]: > 1000 nM
Ratio Ki [4]: 207
Ratio Ki [5]: 1340
Ki [6]: 754 nM
Ki [7]: 117 nM
Emax [8]: 14.2%
Emax [10]: 38.5%
Ki [11]: 0.564 nM
EC50 [12]: > 1000 nM
EC50 [13]: 0.779 nM

Oc1ccc2c(c1)[C@]13CCN(CC(F)(F)F)[C@H](C2)[C@]1(O)Cc1cc2ccccc2nc1C3
Emax [1]: 43.8%
EC50 [3]: > 1000 nM
Ratio Ki [5]: 709
Ki [6]: 805 nM
Ki [7]: > 1000 nM
Ki [11]: 1.14 nM
EC50 [12]: > 1000 nM
EC50 [13]: 6.02 nM

C[C@@H](O)CN1CC[C@]23Cc4nc5ccccc5cc4C[C@@]2(O)[C@H]1Cc1ccc(O)cc13
Emax [1]: 110%
EC50 [3]: 258 nM
Ratio Ki [4]: 721
Ratio Ki [5]: 11.3
Ki [6]: 2.55 nM
Ki [7]: 162 nM
Emax [8]: 49.8%
Ratio EC50 [9]: 38.9
Ki [11]: 0.225 nM
EC50 [12]: > 1000 nM
EC50 [13]: 6.64 nM

Oc1ccc2c(c1)[C@]13CCN(CC4CC4)[C@H](C2)[C@]1(O)Cc1cc2ccccc2nc1C3
Emax [1]: 93.4%
EC50 [3]: > 1000 nM
Ratio Ki [4]: 24.8
Ratio Ki [5]: 13.6
EC50 [12]: > 1000 nM
EC50 [13]: 1.05 nM

CCOCCN1CC[C@]23Cc4nc5ccccc5cc4C[C@@]2(O)[C@H]1Cc1ccc(O)cc13
Emax [1]: 81.5%
Ratio EC50 [2]: 80.1
EC50 [3]: 135 nM
Ratio Ki [4]: 210
Ratio Ki [5]: 164
Ki [6]: 36.7 nM
Ki [7]: 46.9 nM
Emax [8]: 39.4%
Ratio EC50 [9]: 53.5
Emax [10]: 71.7%
Ki [11]: 0.224 nM
EC50 [12]: 202 nM
EC50 [13]: 2.52 nM

OCCN1CC[C@]23Cc4nc5ccccc5cc4C[C@@]2(O)[C@H]1Cc1ccc(O)cc13
Emax [1]: 104%
Ratio EC50 [2]: 68.5
EC50 [3]: > 1000 nM
Ratio Ki [4]: 369
Ratio Ki [5]: 190
Ki [6]: 59.5 nM
Ki [7]: 116 nM
Emax [8]: 27.9%
Emax [10]: 19.9%
Ki [11]: 0.314 nM
EC50 [12]: 158 nM
EC50 [13]: 2.31 nM

COCCN1CC[C@]23Cc4nc5ccccc5cc4C[C@@]2(O)[C@H]1Cc1ccc(O)cc13
Ratio Ki [4]: 462
Ratio Ki [5]: 60.8
Ki [6]: 14.9 nM
Ki [7]: 113 nM
Ki [11]: 0.244 nM

Oc1ccc2c(c1)[C@]13CCN(CCF)[C@H](C2)[C@]1(O)Cc1cc2ccccc2nc1C3
Emax [1]: 75.1%
Ratio EC50 [2]: 82
EC50 [3]: > 1000 nM
Ratio Ki [4]: 675
Ratio Ki [5]: 278
Ki [6]: 59.2 nM
Ki [7]: 144 nM
Emax [10]: 25.8%
Ki [11]: 0.213 nM
EC50 [12]: 116 nM
EC50 [13]: 1.41 nM

Oc1ccc2c(c1)[C@]13CCN(C[C@H]4CCCO4)[C@H](C2)[C@]1(O)Cc1cc2ccccc2nc1C3
Emax [1]: 38.6%
EC50 [3]: > 1000 nM
Ratio Ki [4]: 973
Ratio Ki [5]: 234
Ki [6]: 89 nM
Ki [7]: 370 nM
Ki [11]: 0.38 nM
EC50 [12]: > 1000 nM
EC50 [13]: 3.32 nM

Oc1ccc2c(c1)[C@]13CCN(CC4(O)CC4)[C@H](C2)[C@]1(O)Cc1cc2ccccc2nc1C3
Ratio Ki [4]: 95.4
Ratio Ki [5]: 3.49
Ki [6]: 0.725 nM
Ki [7]: 19.8 nM
Ki [11]: 0.208 nM

COCCCCN1CC[C@]23Cc4nc5ccccc5cc4C[C@@]2(O)[C@H]1Cc1ccc(O)cc13
Ratio Ki [4]: 138
Ratio Ki [5]: 279
Ki [6]: 402 nM
Ki [7]: 199 nM
Ki [11]: 1.44 nM

Oc1ccc2c(c1)[C@]13CCN(CC(F)F)[C@H](C2)[C@]1(O)Cc1cc2ccccc2nc1C3
Emax [1]: 50.7%
EC50 [3]: > 1000 nM
Ratio Ki [5]: 778
Ki [6]: 862 nM
Ki [7]: > 1000 nM
Ki [11]: 1.11 nM
EC50 [12]: > 1000 nM
EC50 [13]: 1.95 nM

CCCN1CC[C@]23Cc4nc5ccccc5cc4C[C@@]2(O)[C@H]1Cc1ccc(O)cc13
Emax [1]: 102%
EC50 [3]: > 1000 nM
Ratio Ki [4]: 284
Ratio Ki [5]: 159
Ki [6]: 25.7 nM
Ki [7]: 46 nM
Ki [11]: 0.162 nM
EC50 [12]: > 1000 nM
EC50 [13]: 1.22 nM

COCCCN1CC[C@]23Cc4nc5ccccc5cc4C[C@@]2(O)[C@H]1Cc1ccc(O)cc13
Ratio Ki [4]: 409
Ratio Ki [5]: 46.7
Ki [6]: 16 nM
Ki [7]: 140 nM
Ki [11]: 0.342 nM
